Experiments:
PDK1 [1] = molecular target: T1, PDK1 (Homo sapiens, UniProt O15530); test: Test for the inhibition of PDK1 (flashplate, 33P-ATP); conditions: His6-PDK1 (1-50) 3.4 nM, 4 μM ATP, 30° C., 60 min; read-out: IC50 [PDK1] biochemical
T1 construct: His6 (N)
T1 sequence (O15530 51-556 limits assumed): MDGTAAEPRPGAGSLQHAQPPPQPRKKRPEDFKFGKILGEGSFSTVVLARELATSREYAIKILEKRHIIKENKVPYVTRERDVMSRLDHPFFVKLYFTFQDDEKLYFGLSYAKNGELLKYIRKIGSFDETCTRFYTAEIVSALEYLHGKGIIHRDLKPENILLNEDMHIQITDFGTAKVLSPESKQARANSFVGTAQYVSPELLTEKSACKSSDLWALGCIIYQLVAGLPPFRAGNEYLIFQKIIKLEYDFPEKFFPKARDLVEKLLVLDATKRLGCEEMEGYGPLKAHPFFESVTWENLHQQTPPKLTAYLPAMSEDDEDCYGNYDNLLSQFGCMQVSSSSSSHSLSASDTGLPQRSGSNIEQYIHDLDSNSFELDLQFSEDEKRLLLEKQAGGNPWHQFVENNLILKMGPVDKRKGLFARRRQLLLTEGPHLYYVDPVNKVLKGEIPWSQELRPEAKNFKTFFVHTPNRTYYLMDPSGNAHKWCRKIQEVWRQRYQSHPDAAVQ
Experimental: The experimental batches are carried out in a flashplate system with 384 wells/microtitration plate.
In each case, the PDK1 sample His6-PDK1 (1-50) (3.4 nM), the PDK1 substrate biotin-bA-bA-[…] (400 nM), 4 μM ATP (with 0.2μ Ci of ^33P-ATP/well) and the test substance in 50 μl of conventional experimental solution per well are incubated at 30° C. for 60 min. The test substances are employed in corresponding concentrations (if desired in a dilution series). The control is carried out without test substance. The reaction is stopped using standard methods and washed. The activity of the kinase is measured via the incorporated radioactivity in top count. In order to determine the non-specific kinase reaction (blank value), the experimental batches are carried out in the presence of 100 nM staurosporin.
The radioactivity (decompositions per minute) of the blank value (no use of test substance in the presence of staurosporin) is subtracted from all other radioactivity values. The controls (kinase activity without test substance) are set equal to 100 percent and all other radioactivity values (after subtracting the blank value) are expressed set in relation thereto (for example in % of the control).
IC50 values (50% inhibition) are determined with the aid of statistics programmes, such as, for example, RS1.

PDK1 [2] = molecular target: T2, PDK1 (Homo sapiens, UniProt O15530); test: Cellular testing of PDK1 kinase inhibitors in PC3 cells (Luminex, phospho-T308-PKB); type: cell-based; conditions: 30 min, serum-free
T2 construct: endogenous in cells; host or cells: PC3 cells
T2 sequence (O15530 1-556): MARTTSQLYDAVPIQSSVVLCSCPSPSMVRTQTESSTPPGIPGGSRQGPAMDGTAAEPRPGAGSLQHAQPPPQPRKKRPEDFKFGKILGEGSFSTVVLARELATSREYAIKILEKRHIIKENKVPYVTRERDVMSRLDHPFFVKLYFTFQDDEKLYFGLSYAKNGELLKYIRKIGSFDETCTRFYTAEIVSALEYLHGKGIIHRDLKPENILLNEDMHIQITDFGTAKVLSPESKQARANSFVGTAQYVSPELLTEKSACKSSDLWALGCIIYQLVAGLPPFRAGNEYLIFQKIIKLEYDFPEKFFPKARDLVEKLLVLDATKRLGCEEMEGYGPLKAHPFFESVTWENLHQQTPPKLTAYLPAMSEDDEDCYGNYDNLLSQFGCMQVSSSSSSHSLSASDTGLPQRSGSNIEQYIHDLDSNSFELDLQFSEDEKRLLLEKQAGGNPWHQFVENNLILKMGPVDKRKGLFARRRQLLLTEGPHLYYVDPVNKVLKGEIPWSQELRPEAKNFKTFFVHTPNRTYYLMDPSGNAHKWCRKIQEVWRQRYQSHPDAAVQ
Experimental: Method for the Cellular Testing of PDK1 Kinase Inhibitors in PC3 Cells.
The cellular assay for the determination of the PDK1 kinase activity is carried out as a Luminex assay in the 96-well format. PC3 cells are sown at 20,000 cells per well in 100 μl of medium (45% of […]/45% of Ham's F12/10% of FCS) and incubated on the following day for 30 min with a serial dilution of the test substance (7 concentrations) under serum-free conditions. The cells are subsequently lysed using 90 μl of lysis buffer (20 mM tris/HCl pH 8.0, 150 mM NaCl, 1% of NP40, 10% of glycerol, 1% of phosphatase inhibitor I, 1% of phosphatase inhibitor II, 0.1% of protease inhibitor cocktail III, 0.01% of benzonase) per well, and the lysates are separated off from insoluble cell constituents by means of centrifugation through a 96-well filter plate (0.65 μm). The lysates are incubated overnight at 4° C. with shaking with Luminex beads to which an anti-total PKB antibody is coupled. The detection is carried out on the following day by addition of a phospho-T308-PKB antibody and a species-specific […] secondary antibody. The detection of phospho T308-PKB is carried out by measurement in a Luminex100 instrument by determination of 100 events per cavity in a measurement time of 60 sec. As pharmacological blank, the signals obtained from cells which have been treated with 10 μM staurosporin are subtracted from all other batches. The control value used for maximum phosphorylation of PKB on T308 are the signals from cells which have only been treated with the solvent (0.3% of DMSO). The values of the batches treated with test substance are calculated therefrom as percentage of control, and IC50 values are determined by means of RS 1.

IC50 (PDK1 [1]) | IC50 (PDK1 [2]) | Structure (SMILES)
0.5 to 1000 nM | 0.5 to 1000 nM | Cn1cc(-c2cnc3[nH]cc(-c4nnc(C(O)c5cccc(Cl)c5Cl)o4)c3c2)cn1 (stereo not shown) [A65]
1000 to 10000 nM | 0.5 to 1000 nM | Cn1cc(-c2cnc3[nH]cc(-c4nc(C(C)(O)c5ccccc5)no4)c3c2)cn1 (stereo not shown) [A67]
0.5 to 1000 nM | 1000 to 10000 nM | Cn1cc(-c2cnc3[nH]cc(-c4cc(C(C)(O)c5ccccc5)n(CCO)n4)c3c2)cn1 (stereo not shown) [A68]
1000 to 10000 nM | 1000 to 10000 nM | C=C(c1ccccc1)c1cc(-c2c[nH]c3ncc(-c4cnn(C)c4)cc23)nn1CCO [A69]
0.5 to 1000 nM | 0.5 to 1000 nM | Cn1cc(-c2cnc3[nH]cc(-c4nnc(C5(c6ccccc6F)CC5)o4)c3c2)cn1 [A70]
0.5 to 1000 nM | 0.5 to 1000 nM | Cn1cc(-c2cnc3[nH]cc(-c4nc(C(C)(O)c5cccc(F)c5)no4)c3c2)cn1 (stereo not shown) [A72]
0.5 to 1000 nM | 0.5 to 1000 nM | Cn1cc(-c2cnc3[nH]cc(-c4cc(C(O)c5ccccc5)[nH]n4)c3c2)cn1 (stereo not shown) [A74]
0.5 to 1000 nM | 0.5 to 1000 nM | Cn1cc(-c2cnc3[nH]cc(-c4cc(C(O)c5ccccc5)on4)c3c2)cn1 (stereo not shown) [A75]
0.5 to 1000 nM | 0.5 to 1000 nM | Cn1cc(-c2cnc3[nH]cc(-c4nc(C(C)(O)c5cccc(F)c5F)no4)c3c2)cn1 (stereo not shown) [A78]
1000 to 10000 nM | 0.5 to 1000 nM | Cn1cc(-c2cnc3[nH]cc(-c4nc(C(C)(O)c5ccccc5Cl)no4)c3c2)cn1 (stereo not shown) [A79]
0.5 to 1000 nM | 0.5 to 1000 nM | Cn1cc(-c2cnc3[nH]cc(-c4nc(C(C)(O)c5cccc(Cl)c5)no4)c3c2)cn1 (stereo not shown) [A80]
0.5 to 1000 nM | 1000 to 10000 nM | COC(c1ccccc1)c1nnc(-c2c[nH]c3ncc(-c4cnn(C)c4)cc23)o1 (stereo not shown) [A81]
1000 to 10000 nM | 1000 to 10000 nM | Cn1cc(-c2cnc3[nH]cc(-c4nnc(C(F)c5cccc(F)c5)o4)c3c2)cn1 (stereo not shown) [A82]
0.5 to 1000 nM | 0.5 to 1000 nM | Cn1cc(-c2cnc3[nH]cc(-c4nnc(C5(c6ccccc6Cl)CC5)o4)c3c2)cn1 [A83]
0.5 to 1000 nM | 1000 to 10000 nM | Cn1cc(-c2cnc3[nH]cc(-c4cc(C(O)c5ccccc5)n(C)n4)c3c2)cn1 (stereo not shown) [A84]
1000 to 10000 nM | 1000 to 10000 nM | Cc1cc(C2(c3nnc(-c4c[nH]c5ncc(-c6cnn(C)c6)cc45)o3)CC2)ccn1 [A85, 5-(1-methyl-1H-pyrazol-4-yl)-3-{5-[1-(2-methylpyridin-4-yl)-cyclopropyl]-1,3,4-oxadiazol-2-yl}-1H-pyrrolo[2,3-b]pyridine]
0.5 to 1000 nM | 0.5 to 1000 nM | Cn1cc(-c2cnc3[nH]cc(-c4nnc(C(O)c5ccccc5C(F)(F)F)o4)c3c2)cn1 (stereo not shown) [A86]
0.5 to 1000 nM | 1000 to 10000 nM | Cn1cc(-c2cnc3[nH]cc(-c4n[nH]c(C(O)c5ccccc5Cl)n4)c3c2)cn1 (stereo not shown) [A87, (2-chlorophenyl)-{5-[5-(1-methyl-1H-pyrazol-4-yl)-1H-pyrrolo[2,3-b]pyridin-3-yl]-2H-1,2,4-triazol-3-yl}-methanol]

IC50 (PDK1 [1]) | IC50 (PDK1 [2]) | Structure (SMILES)
0.5 to 1000 nM | 1000 to 10000 nM | Cn1cc(-c2cnc3[nH]cc(-c4cc(C(C)(O)c5ccccc5Cl)[nH]n4)c3c2)cn1 (stereo not shown) [A88]
0.5 to 1000 nM | 0.5 to 1000 nM | Cn1cc(-c2cnc3[nH]cc(-c4cc(C(C)(O)c5ccccc5Cl)on4)c3c2)cn1 (stereo not shown) [A89]
1000 to 10000 nM | 1000 to 10000 nM | Cn1cc(-c2cnc3[nH]cc(-c4nnc(C5(c6ccnc(Cl)c6)CC5)o4)c3c2)cn1 [A91]
0.5 to 1000 nM | 1000 to 10000 nM | Cn1cc(-c2cnc3[nH]cc(-c4cc(C(C)(O)c5ccc(=O)n(C)n5)on4)c3c2)cn1 (stereo not shown) [A99, 6-(1-hydroxy-1-{3-[5-(1-methyl-1H-pyrazol-4-yl)-1H-pyrrolo-[2,3-b]pyridin-3-yl]isoxazol-5-yl}ethyl)-2-methyl-2H-pyridazin-3-one]
0.5 to 1000 nM | 1000 to 10000 nM | Cn1cc(-c2cnc3[nH]cc(-c4cc(C(O)(c5ccnnc5)C(C)(C)C)on4)c3c2)cn1 (stereo not shown) [A100, 2,2-dimethyl-1-{3-[5-(1-methyl-1H-pyrazol-4-yl)-1H-pyrrolo-[2,3-b]pyridin-3-yl]isoxazol-5-yl}-1-pyridazin-4-ylpropan-1-ol]
0.5 to 1000 nM | 1000 to 10000 nM | Cn1cc(-c2cnc3[nH]cc(-c4cc(CO)on4)c3c2)cn1 [A105]
0.5 to 1000 nM | 1000 to 10000 nM | Cn1cc(-c2cnc3[nH]cc(-c4cc(C(O)c5ccccc5)nn4CCO)c3c2)cn1 (stereo not shown) [A107]
0.5 to 1000 nM | 1000 to 10000 nM | Cn1cc(-c2cnc3[nH]cc(-c4nnc(C5(c6cccnc6)CCCC5)o4)c3c2)cn1 [A110]
0.5 to 1000 nM | 0.5 to 1000 nM | Cn1cc(-c2cnc3[nH]cc(-c4nnc([C@H](N)c5ccccc5Cl)o4)c3c2)cn1 [A112]
0.5 to 1000 nM | 1000 to 10000 nM | Cn1cc(-c2cnc3[nH]cc(-c4nnc([C@@H](N)c5ccccc5Cl)o4)c3c2)cn1 [A113]
0.5 to 1000 nM | 1000 to 10000 nM | CN[C@@H](c1ccccc1)c1nnc(-c2c[nH]c3ncc(-c4cnn(C)c4)cc23)o1 [A116]
1000 to 10000 nM | 1000 to 10000 nM | Cn1cc(-c2cnc3[nH]cc(-c4nnc(C(N)c5cc(F)cc(F)c5)o4)c3c2)cn1 (stereo not shown) [A117]
0.5 to 1000 nM | 0.5 to 1000 nM | Cn1cc(-c2cnc3[nH]cc(-c4nnc(C(N)c5ccccc5Cl)o4)c3c2)cn1 (stereo not shown) [A118]
1000 to 10000 nM | 1000 to 10000 nM | Cn1cc(-c2cnc3[nH]cc(-c4nnc(C5(c6ccccn6)CC5)o4)c3c2)cn1 [A120]
1000 to 10000 nM | 1000 to 10000 nM | Cn1cc(-c2cnc3[nH]cc(-c4n[nH]c(C5(c6ccc(Cl)nc6)CC5)n4)c3c2)cn1 [A122, 3-{5-[1-(6-chloropyridin-3-yl)cyclopropyl]-1H-1,2,4-triazol-3-yl}-5-(1-methyl-1H-pyrazol-4-yl)-1H-pyrrolo[2,3-b]pyridine]
1000 to 10000 nM | 1000 to 10000 nM | Cn1cc(-c2cnc3[nH]cc(-c4nnc(C5(c6ccc(Cl)nc6)CC5)o4)c3c2)cn1 [A123, 3-{5-[1-(6-chloropyridin-3-yl)cyclopropyl]-1,3,4-oxadiazol-2-yl}-5-(1-methyl-1H-pyrazol-4-yl)-1H-pyrrolo[2,3-b]pyridine]
0.5 to 1000 nM | 1000 to 10000 nM | Cn1cc(-c2cnc3[nH]cc(-c4nnc(C5(c6cccnc6)CC5)o4)c3c2)cn1 [A124, 5-(1-methyl-1H-pyrazol-4-yl)-3-[5-(1-pyridin-3-ylcyclopropyl)-1,3,4-oxadiazol-2-yl]-1H-pyrrolo[2,3-b]pyridine]

Reference: patent publication US20130245355A1, “3-HETARYL-SUBSTITUTED PYRROLO[2,3 B]PYRIDINE DERIVATIVES AS PDK1 INHIBITORS” (MERCK PATENT GMBH, priority 2010, published 2013)
